Reference: ChEMBL document CHEMBL1201862, “PubChem BioAssay data set” (2004)
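Protocol summary: plate cells (96-well), add compound at 5 concentrations, incubate 48 h, interpolate endpoints linearly. Here, GI50 denotes the concentration required for 50% inhibition of growth.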 Active and inactive are the calls of the source. Rule as the data show it: active = GI50 up to about 1.1 µM and inactive = higher.

What was measured:
Test in all cases: DTP human tumour cell line panel, 48 h
[1] = tested on: DLD-1
[2] = tested on: DMS-114
[3] = tested on: HOP-18
[4] = tested on: LXFL 529
[5] = tested on: RXF 631
[6] = tested on: SNB-78
[7] = tested on: KM-20L2
[8] = tested on: T47D
[9] = tested on: XF498

For `Nc1ncnc2c1ncn2CC(O)CO` (centres undefined), which GI50 [1] is on record?
The GI50 was > 100 µM (inactive).

And the GI50 [2]?
Its GI50 is > 100 µM (inactive).

And the GI50 [3]?
Its GI50 is > 100 µM (inactive).

And the GI50 [4]?
Its GI50 is > 100 µM (inactive).

And the GI50 [5]?
The GI50 was > 100 µM (inactive).

What about the GI50 [6] of the same compound?
Its GI50 is > 100 µM (inactive).

How did the GI50 [1] turn out when `NC(CCc1ncc(C(=O)O)s1)C(=O)O` (centres undefined) was run?
Its GI50 is > 100 µM (inactive).

What about the GI50 [2] of the same compound?
Its GI50 is > 100 µM (inactive).

What about the GI50 [3] of the same compound?
Its GI50 is > 100 µM (inactive).

And the GI50 [4]?
Its GI50 is > 100 µM (inactive).

And the GI50 [5]?
The GI50 was > 100 µM (inactive).

What about the GI50 [6] of the same compound?
Its GI50 is > 100 µM (inactive).

How did the GI50 [1] turn out when `CCCCCCCCCCCCCCCC(=O)OCC1OC(OC)C2NP(=O)(N(CCCl)CCCl)OC1C2O` (centres undefined) was run?
Its GI50 is 2.7 µM (inactive).

And the GI50 [2]?
The GI50 was 1.54 µM (inactive).

What about the GI50 [3] of the same compound?
Its GI50 is 8.53 µM (inactive).

What about the GI50 [7] of the same compound?
Its GI50 is 15.8 µM (inactive).

What about the GI50 [4] of the same compound?
The GI50 was 2.43 µM (inactive).

And the GI50 [5]?
Its GI50 is 6.89 µM (inactive).

And the GI50 [6]?
The GI50 was 3.3 µM (inactive).

What about the GI50 [8] of the same compound?
The GI50 was 2.73 µM (inactive).

What about the GI50 [9] of the same compound?
Its GI50 is 2.31 µM (inactive).

What does the source list for `COC12CC(O)=C(C(C)=O)C(=O)C1(C)c1c(OC(C)=O)c(C)c(O)c(C(C)=O)c1O2` (centres undefined)?
GI50 [2]: 21.3 µM (inactive); GI50 [3]: 5.11 µM (inactive); GI50 [7]: 16.7 µM (inactive); GI50 [4]: 14.3 µM (inactive); GI50 [5]: 21.2 µM (inactive); GI50 [6]: 27.7 µM (inactive); GI50 [9]: 14.8 µM (inactive)

What does the source list for `CC1=C(C(=O)Nc2ccc([N+](=O)[O-])cc2)C(c2cccc([N+](=O)[O-])c2)C(C(=O)Nc2ccc([N+](=O)[O-])cc2)=C(C)N1`?
GI50 [1]: 9.66 µM (inactive); GI50 [2]: 8.53 µM (inactive); GI50 [3]: > 100 µM (inactive); GI50 [7]: 16.6 µM (inactive); GI50 [4]: 8.53 µM (inactive); GI50 [5]: > 100 µM (inactive); GI50 [6]: > 100 µM (inactive); GI50 [9]: 2.87 µM (inactive)

`COc1ccc(S(=O)(=O)N/N=C/c2cc(I)cc([N+](=O)[O-])c2O)cc1OC` was tested. Which GI50 [1] did it give?
The GI50 was 36.3 µM (inactive).

And the GI50 [3]?
The GI50 was 21.6 µM (inactive).

What about the GI50 [7] of the same compound?
The GI50 was > 100 µM (inactive).

What about the GI50 [4] of the same compound?
The GI50 was 27 µM (inactive).

What about the GI50 [5] of the same compound?
Its GI50 is 38.8 µM (inactive).

And the GI50 [6]?
The GI50 was 24.7 µM (inactive).

And the GI50 [9]?
The GI50 was 24.1 µM (inactive).

Which GI50 [1] does the source give for `COC(=O)C1=C(C)N(NC(N)=O)C2(N)N(NC(N)=O)C(C)=C(C(=O)OC)C12C#N` (centres undefined) here?
The GI50 was > 100 µM (inactive).

And the GI50 [2]?
The GI50 was > 100 µM (inactive).

And the GI50 [3]?
The GI50 was > 100 µM (inactive).

What about the GI50 [7] of the same compound?
The GI50 was > 100 µM (inactive).

And the GI50 [5]?
The GI50 was > 100 µM (inactive).

What about the GI50 [6] of the same compound?
The GI50 was > 100 µM (inactive).

And the GI50 [9]?
Its GI50 is > 100 µM (inactive).

What does the source list for `COC(=O)C1=C(c2ccc(OC)c(OC)c2)OC(c2cc(OC)c(OC)c(OC)c2)C1` (centres undefined)?
GI50 [1]: 2.12 µM (inactive); GI50 [2]: 37.6 µM (inactive); GI50 [3]: 61.7 µM (inactive); GI50 [7]: > 100 µM (inactive); GI50 [4]: 0.711 µM (active); GI50 [5]: 94.2 µM (inactive); GI50 [6]: 22.8 µM (inactive); GI50 [9]: 24.5 µM (inactive)

What does the source list for `C=C(CCCCCCCCC)CC(=O)SCCNC(=O)CCNC(=O)C(O)C(C)(C)COP(=O)(O)OP(=O)(O)OCC1OC(n2cnc3c(N)ncnc32)C(O)C1OP(=O)(O)O` (centres undefined)?
GI50 [1]: 42.9 µM (inactive); GI50 [2]: 55.3 µM (inactive); GI50 [3]: 29.4 µM (inactive); GI50 [7]: > 100 µM (inactive); GI50 [4]: 56.2 µM (inactive); GI50 [5]: 55.2 µM (inactive); GI50 [6]: 25.5 µM (inactive); GI50 [8]: > 76.9 µM (inactive); GI50 [9]: 50 µM (inactive)

What does the source list for `O=c1ccn(C2(CO)C=C(CO)C(O)C2O)c(=O)[nH]1` (centres undefined)?
GI50 [1]: > 25.7 µM (inactive); GI50 [2]: > 25.7 µM (inactive); GI50 [3]: > 25.7 µM (inactive); GI50 [7]: > 25.7 µM (inactive); GI50 [4]: > 25.7 µM (inactive); GI50 [5]: > 25.7 µM (inactive); GI50 [6]: > 25.7 µM (inactive)
